The text below walks through data of patent US7375058B2, “Herbicidal mixtures based on 3-phenyluracils” (priority 2002, dated 2008).

Settings in all cases: 21 days
For one data set, the system named is ALOMY. The experiment in a line: Greenhouse post-emergence herbicidal action against ALOMY. The format is in vivo, Alopecurus myosuroides. From the text: (§1) For the post-emergence treatment, the test plants were first grown to a height of 3 to 20 cm, depending on the plant habit, and only then treated. Here, the herbicidal compositions were suspended or emulsified in water as distribution medium and sprayed using finely distributing nozzles
(§2) The respective components A and B and/or C were formulated as 10% by weight strength emulsion concentrate and introduced to the spray liquor with the amount of solvent system used for applying the active compound. In the examples, the solvent used was water.
(§3) The test period extended over 21 days. During this time, the plants were tended, and their response to the treatments with active compound was evaluated.
(§4) The evaluation for the damage caused by the chemical compositions was carried out using a scale from 0 to 100%, compared to the untreated control plants. Here, 0 means no damage and 100 means complete destruction of the plants.
(§5) In the examples below, the value E which is to be expected if the activity of the individual compounds is just additive was calculated using the method of S. R. Colby (1967) “Calculating synergistic and antagonistic responses of herbicide combinations”, Weeds 15, p. 22 ff. E=X+Y−([…]) where • X=effect in percent using active compound A at an application rate a; • Y=effect in percent using active compound B at an application rate b; • E=expected effect (in %) of A+B at application rates a+b.
(§6) If the observed effect is higher than the value E calculated according to Colby, a synergistic effect is present.

In another data set the test system is BIDPI. The experiment in a line: Greenhouse post-emergence herbicidal action against BIDPI. The format is in vivo, Bidens pilosa.
Text: as §1, §2, §3, §4, §5, §6

The test system of a further data set is POLPE. The experiment in a line: Greenhouse post-emergence herbicidal action against POLPE. Format: in vivo, Polygonum persicaria.
Text: as §1, §2, §3, §4, §5, §6

For the next data set, the system named is BRAPL. The experiment in a line: Greenhouse post-emergence herbicidal action against BRAPL. Format: in vivo, Brachiaria plantaginea.
Text: as §1, §2, §3, §4, §5, §6

A further data set deals with ECHCG. The data set is described as follows: Greenhouse post-emergence herbicidal action against ECHCG. The format is in vivo, Echinochloa crus-galli.
Text: as §1, §2, §3, §4, §5, §6

The next data set deals with POAPR. The data set is described as follows: Pre-emergence herbicidal action against POAPR. Format: in vivo, Poa pratensis. How it is done:
as §4
(§7) In the examples below, the mixtures were applied by the pre-emergence method. To this end, the test plants were initially sown and covered with a thin layer of soil. Afterward (i.e. prior to the germination of the test plants), the mixtures according to the invention were sprayed onto the soil as an aqueous spray liquor at the stated application rate. As in the post-emergence method described above, the test period was 21 days. The damage was then evaluated as described above using a scale from 0 to 100% damage in comparison to untreated control plants (0% damage).
(§8) A safener action is present if the damage to the crop plant caused by using a mixture according to the invention which contains a safener C) is less than the damage caused when active compound A or active compounds A and B are used without safener.

In a further data set the test system is TRFPR. The experiment in a line: Pre-emergence herbicidal action against TRFPR. The format is in vivo, Trifolium pratense. The protocol: as §4, §7, §8
The test system of the next data set is TRZAW. The data set is described as follows: Pre-emergence safener action (crop damage) in TRZAW. The format is in vivo, Triticum aestivum (Winter wheat). The protocol: as §4, §7, §8
Another data set deals with COMBE. The data set is described as follows: Greenhouse post-emergence herbicidal action against COMBE. Format: in vivo, Commelina benghalensis.
Text: as §1, §2, §3, §4, §5, §6

[1] abbreviates: application rate g/ha: I.8 0.98, b5.1 7.81.
Setting [2] is: application rate g/ha: I.8 1.95, b5.1 15.63.
The mark [3] stands for this setting: I.8 200 g/ha and/or c.1 200 g/ha.
Setting [4] is: I.8 400 g/ha and/or c.1 400 g/ha.
The mark [5] stands for this setting: application rate g/ha: I.7 1.95, b13.1 500.
The mark [6] stands for this setting: application rate g/ha: I.7 3.91, b13.1 1000.
[7] abbreviates: I.7 200 g/ha and/or c.1 200 g/ha.
[8] abbreviates: I.7 400 g/ha and/or c.1 400 g/ha.

`CC(C)N(C)S(=O)(=O)NC(=O)c1cc(-n2c(=O)cc(C(F)(F)F)n(N)c2=O)c(F)cc1Cl` [I.8]: the “Herbicidal action against ALOMY found” value in the data set with ALOMY (application rate g/ha: I.8 0.49, b2.1 7.81) came to 5%; in the data set on ALOMY (application rate g/ha: I.8 0.98, b2.1 15.63) it was 10%. For the same compound, the “Herbicidal action against BIDPI found” value in the data set with BIDPI (application rate g/ha: I.8 0.49, b2.2 7.81) came to 10%; with BIDPI (application rate g/ha: I.8 0.98, b2.2 15.63), 20%. The “Herbicidal action against POLPE found” value with POLPE (setting [1]) is reported as 10%; in the data set with POLPE (setting [2]), 20%. The “Herbicidal action against BRAPL found” value with BRAPL (setting [1]) was 30%; with BRAPL (setting [2]) it was 40%. Further, the “Herbicidal action against ECHCG found” value in the data set on ECHCG (application rate g/ha: I.8 1.95, b5.2 31.25) was 20%; in the data set with ECHCG (application rate g/ha: I.8 3.91, b5.2 62.5), 40%. Further, the “Herbicidal action against POAPR” value in the data set with POAPR (setting [3]) was 98%; in the data set on POAPR (setting [4]) it was 100%. The “Herbicidal action against TRFPR” value with TRFPR (setting [3]) and in the data set with TRFPR (setting [4]) was 100% throughout. Also, the “Damage to crop plant TRZAW” value in the data set with TRZAW (setting [3]) is recorded as 30%; with TRZAW (setting [4]) it was 65%.
For the compound `CNC.C[C@@H](Oc1ccc(Cl)cc1Cl)C(=O)O` [b13.1, dichlorprop-P dimethylammonium salt, reference compound], the “Herbicidal action against POLPE found” value in the data set with POLPE (setting [5]) and in the data set on POLPE (setting [6]) was 30% in each case. Further, the “Herbicidal action against COMBE found” value came to 40% with COMBE (setting [5]) and 75% in the data set on COMBE (setting [6]).
On to `CCOC(=O)C1=NN(c2ccc(Cl)cc2Cl)C(C)(C(=O)OCC)C1` (centres unmarked) [c.1, mefenpyr-diethyl, reference compound], for which the “Herbicidal action against POAPR” value in the data set with POAPR (setting [7]), with POAPR (setting [8]), with POAPR (setting [3]) and with POAPR (setting [4]) was 0% throughout. Besides, the “Herbicidal action against TRFPR” value in the data set on TRFPR (setting [7]), with TRFPR (setting [8]), in the data set with TRFPR (setting [3]) and in the data set with TRFPR (setting [4]) was 5% each time. Moreover, the “Damage to crop plant TRZAW” value in the data set on TRZAW (setting [7]), in the data set with TRZAW (setting [8]), with TRZAW (setting [3]) and in the data set with TRZAW (setting [4]) was 0% throughout.
